Results: patent US20140187556A1, “ANTI-AMYLOID COMPOUNDS AND METHODS” (Treventis Corporation, priority 2011, published 2014)
Like-named read-outs stand apart in the source and are kept apart here.

Assays:
[1] = In vivo blood and brain exposure and brain/plasma ratio in ICR mice; conditions: male ICR mice
Protocol: TRV 1140 was formulated in 3% N-methyl-2-pyrrolidone, 0.5% Cremaphor, 50% olive oil in water. The compound was formulated at a concentration of 2 mg/mL and dosed in a volume of 10 mL/kg to produce a dose of 20 mg/kg. The formulation was an emulsion. Compound was formulated fresh daily. Mice were dosed once daily for three days. Male ICR mice (S.A. Ace Animals; Boyertown, Pa.) were used for this experiment. Animals were group housed and kept on a standard 12 hr light cycle. Food and water were available ad libitum. On the third day mice were dosed with compound. At the designated time after 20 mg/kg dosing (30 min, 2 hrs, 4 hrs), whole blood was collected via the retro-orbital sinus in heparanized tubes and mixed with deionized water at a 1:1 ratio for hemolyzation. Hemolyzed blood was analyzed for levels of test agent. Blood samples were extracted by a standard protocol known in the art. At designated time points, mice were sacrificed. Brains were removed, weighed, and processed. Brains were homogenized and test agent extracted with an acetonitrile homogenization method (1 mL acetonitrile: 1 g brain). Supernatant samples were stored at −80° C. for subsequent analysis of brain levels of test compound. Brain levels of test agent were analyzed by LC/MS/MS.

alpha-synuclein = alpha-synuclein (Homo sapiens, UniProt P37840); assay: alpha-synuclein aggregation assay (ThT, analogous to Example 1); type: biochemical; conditions: 10 μM compound
Protocol: Analogous to the method of Example 1, the ability of compounds to inhibit the aggregation of alpha-synuclein was performed by substituting Aβ with alpha-synuclein.

[2] = Metabolic stability in mouse liver microsomes; type: in vitro ADME; conditions: 1 μM compound, 0.5 mg/mL microsomal protein, 1 mM NADPH
Protocol: This assay is used to determine the percent remaining and intrinsic clearance of a test compound incubated with pooled mouse liver microsomes in the presence of NADPH. Further details on this method may be found in Jeffrey P, et al., Utility of metabolic stability screening: comparison of in vitro and in vivo clearance. enobiotica. 2001 August-September; 31(8-9):591-8 and Lin J H, et al., Role of pharmacokinetics and metabolism in drug discovery and development. Pharmacol Rev. 1997; 49(4):403-49; each of which is hereby incorporated by reference. Test compound was formulated in 300 μL of DMSO at 10 mM and was diluted to 1 μM with final concentration of organic solvent <0.25% for the experiment. Pooled liver microsomes were prepared from male mice, with 1 mM NADPH. Test compound was incubated at 37 degrees Celsius in buffer containing 0.5 mg/mL microsomal protein; the reaction was initiated by adding cofactors and sampled at 0, 10, 20, 30, and 60 minutes. A positive control (5 μM testosterone) was incubated and initiated in parallel for quality control. Samples were analyzed using an LTQ-Orbitrap XL mass spectrometer; HRMS was used to determine the peak area response ratio (peak area corresponding to test compound or control divided by that of an analytical internal standard) without running a standard curve.
Results were reported for selected compounds in the table of Example 1, as % test compound remaining after 60 minutes. Compounds which have less than about 5% remaining are not considered to be metabolically stable in mouse liver microsomes, while compounds with more than about 5% remaining are considered to be metabolically stable in mouse liver microsomes.

[3] = Blood-brain barrier penetration potential using MDR1-MDCK cell monolayers; type: in vitro ADME; conditions: dog
From the text: This assay is used to determine the blood-brain barrier (BBB) penetration potential of a test compound using MDR1-MDCK cell monolayers. Further details on this method may be found in Taub M E, et al., Functional assessment of multiple Pglycoprotein (P-gp) probe substrates: Influence of cell line and modulator concentration on P-gp activity. Drug Metab Dispos. 2005 November; 33(11): 1679-87 and Wang Q, et al., Evaluation of the MDR-MDCK cell line as a permeability screen for the blood-brain barrier. Int J. Pharm. 2005 Jan. 20; 288(2):349-59; each of which is hereby incorporated by reference. Test compound was formulated in 300 μL of DMSO at 10 mM and diluted to 5 μM in HBSSg with maximum DMSO concentration not greater than 1%. Confluent monolayers of MDR1-MDCK cells, 7 to 11 days old, were used. A receiver well, having apical and basolateral sides at pH 7.4, was used with 1% BSA in modified Hanks buffer (HBSSg). Two monolayers were dosed with test compound in each direction (N=2). Apical side dosing was used for A-B assessment and basolateral side was used for B-A assessment; taken together, this information provides a bidirectional permeability potential. Apical and basolateral sides were sampled at 120 minutes and concentrations of test compound were determined using an LC-MS/MS method with a minimum 4 point calibration curve. Apparent permeability (Papp) in both directions (A-B and B-A) was calculated, as was the efflux ratio (Papp B-A)/(Papp A-B).

Tau441 = Tau441 (Homo sapiens, UniProt P10636); assay: Thioflavin S (ThS) tau aggregation assay; type: biochemical; conditions: 20 μM, FIG. 1
Protocol: Analogous to the method of Example 1, the ability of compounds to inhibit the aggregation of tau was performed by substituting […] with tau and Thioflavin T with Thioflavin S.

Chain of Tau441 (P10636 1-441 isoform P10636-8): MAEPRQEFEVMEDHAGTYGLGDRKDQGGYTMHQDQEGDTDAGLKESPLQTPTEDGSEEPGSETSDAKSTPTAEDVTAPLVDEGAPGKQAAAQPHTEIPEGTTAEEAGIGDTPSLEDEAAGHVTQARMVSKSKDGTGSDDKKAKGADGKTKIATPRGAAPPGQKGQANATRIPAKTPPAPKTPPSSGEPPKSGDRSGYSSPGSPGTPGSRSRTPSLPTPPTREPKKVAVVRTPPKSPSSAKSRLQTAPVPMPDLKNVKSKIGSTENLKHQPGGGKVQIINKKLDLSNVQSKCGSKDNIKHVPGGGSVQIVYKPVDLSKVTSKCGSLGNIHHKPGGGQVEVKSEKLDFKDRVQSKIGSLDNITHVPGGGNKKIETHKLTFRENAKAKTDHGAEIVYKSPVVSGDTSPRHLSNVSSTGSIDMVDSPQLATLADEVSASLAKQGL

brain penetrance ([1]; 20 mg/kg): highly brain penetrable | time of maximum concentration (blood and brain) ([1]; 20 mg/kg once daily, third day): 4 h | total drug exposure in blood ([1]; 20 mg/kg once daily, third day, 0-4 hr): 450 ng·h/mL | total drug exposure in brain ([1]; 20 mg/kg once daily, third day, 0-4 hr, mean of two samples): 694 ng·h/mL | Cmax ([1]; mouse, brain, 20 mg/kg once daily, third day, read-out: Maximum concentration (Cmax) in brain): 238 ng/mL | Cmax ([1]; mouse, whole blood, 20 mg/kg once daily, third day, read-out: Maximum concentration (Cmax) in blood): 87.5 ng/mL | Stability in mouse liver microsomes (% test compound remaining after 60 min) [2]: 34% | Papp A→B at 120 min, 5 µM ([3]; MDCK-MDR1, apical dosing, pH 7.4, read-out: Papp A-B × 10^−6 cm/s): 15.3 ×10⁻⁶ cm/s | Papp B→A at 120 min, 5 µM ([3]; MDCK-MDR1, basolateral dosing, pH 7.4, read-out: Papp B-A × 10^−6 cm/s): 12.4 ×10⁻⁶ cm/s | efflux ratio at 120 min, 5 µM ([3]; MDCK-MDR1, pH 7.4, read-out: Efflux ratio (Papp B-A)/(Papp A-B)): 0.8 | relative potency in tau aggregation assay (lower fluorescence is better) (Tau441): Most potent
Compound: O=[N+]([O-])c1ccc(-c2cccc(C(O)C(F)(F)F)c2)cc1NCc1ccccc1 (stereo not shown) [TRV 1140, 1-(3′-(benzylamino)-4′-nitro-[1,1′-biphenyl]-3-yl)-2,2,2-trifluoroethanol]
Kp ([1]; mouse, brain / plasma (method describes hemolyzed whole blood), 20 mg/kg once daily, third day): 1.54 | inhibition of alpha-synuclein aggregation (alpha-synuclein): inhibit alpha-synuclein aggregation at 10 μM
